US20150141438A1, “METHODS FOR DELAYING OR PREVENTING THE ONSET OF TYPE 1 DIABETES” (Pharmacyclics, Inc., priority 2013, published 2015)

Columns and labels:
anti-insulin B cells = experiment: BTK inhibitor treatment of 125Tg/NOD mice (Ibrutinib chow); B cell subsets assessed by flow cytometry in freshly isolated organs; type: in vivo, mouse
Experimental: After 5-10 weeks, spleen, draining pancreatic lymph nodes, and pancreas were harvested and flow cytometry was used to analyze B cell subsets. […] Mice were 12-13 weeks old at time of analysis.
B cell subsets were assessed by flow cytometry in freshly isolated organs as outlined below.
BM was eluted from long bones, and spleens and pancreatic draining lymph nodes (PLN) were macerated with HBSS (Invitrogen) plus 10% FBS (HyClone). Red blood cells were lysed using Tris-NH4Cl. Freshly isolated pancreata were digested with 3 mL of 1 mg/mL collagenase P diluted in HBSS for 30 min at 37° C., then tissue was disrupted using an 18-gauge needle. Ice cold HBSS plus 10% FBS was immediately added to inhibit collagenase activity. Cells were directly analyzed by flow cytometry. Flow cytometry Ab reagents were reactive with B220 (6B2), IgM^a (DS-1), CD19 (1D3), CD21 (7G6), CD23 (B3B4), CD93 (AA4.1), or IgM chain-specific) (Life Technologies). Biotin N-hydroxysuccinimide ester (Sigma) was used to biotinylate human insulin (Sigma) at pH 8.0 in bicine buffer. Streptavidin reagents (BD Biosciences) were used to detect biotinylated reagents. 7AAD (BD Biosciences) was used to identify dead cells. Sample acquisition was performed using an LSR II flow cytometer (BD Biosciences) and FlowJo software (Treestar) was used for analysis.
BTK is a complex protein with adapter as well as kinase functions that have independent effects on various aspects of B cell development and function. […] Flow cytometry analysis of freshly isolated splenocytes was used to identify B cell subsets as in FIG. 3.

[1] = Example 3: prediabetic individual administered ibrutinib and cyclosporine A; type: in vivo; settings: individual with impaired fasting glycemia and impaired glucose tolerance; ibrutinib administered with cyclosporine A
Experimental: An individual presents with impaired fasting glycemia and impaired glucose tolerance. The individual is determined to be prediabetic.

[2] = spleen, Ibrutinib vs. placebo chow, 125Tg/NOD mice

C=CC(=O)N1CCC[C@@H](n2nc(-c3ccc(Oc4ccccc4)cc3)c3c(N)ncnc32)C1 [Ibrutinib, (R)-1-(3-(4-amino-3-(4-phenoxyphenyl)-1H-pyrazolo[3,4-d]pyrimidin-1-yl)piperidin-1-yl)prop-2-en-1-one]
trafficking of anti-insulin B lymphocytes to pancreatic draining lymph nodes or pancreas (anti-insulin B cells; 125Tg/NOD mice treated with Ibrutinib): does not block their trafficking to pancreatic draining lymph nodes or pancreas
non-B lymphocyte numbers in spleen (anti-insulin B cells; 125Tg/NOD mice, Ibrutinib chow 5-10 weeks, 38 mg/kg per day, placebo 28.6±8.3, no difference): 25.1±8.5 ×10^6
number of B lymphocytes (B220+ IgM+ live lymphocytes) in spleen (anti-insulin B cells; 125Tg/NOD mice, Ibrutinib chow 5-10 weeks, average 38 mg/kg per day, placebo 22.2±5.8, p<0.001): 10.1±2.8 ×10^6
T2 B cell subset numbers in the spleen (anti-insulin B cells; 125Tg/NOD mice, Ibrutinib chow 5-10 weeks, placebo 17±3, p=0.51, no difference): 49±76 ×10^4
pre-marginal zone B cell numbers in the spleen (anti-insulin B cells; 125Tg/NOD mice, Ibrutinib chow 5-10 weeks, placebo 43±6, p=0.0015): 17±5 ×10^4
follicular B cell numbers in the spleen (anti-insulin B cells; 125Tg/NOD mice, Ibrutinib chow 5-10 weeks, placebo 345±38, p<0.001): 41±37 ×10^4
marginal zone B cell numbers in the spleen (anti-insulin B cells; 125Tg/NOD mice, Ibrutinib chow 5-10 weeks, placebo 1283±217, p=0.002): 443±164 ×10^4
number of B cells in the pancreas (anti-insulin B cells; 125Tg/NOD mice, Ibrutinib chow, placebo 5.2±7.7, p=0.36, no significant difference): 0.66±0.80 ×10^4
number of B cells in the pancreatic draining lymph nodes (anti-insulin B cells; 125Tg/NOD mice, Ibrutinib chow, placebo 21±8, p=0.49, no significant difference): 26±9 ×10^4
reduction in follicular B cell numbers (anti-insulin B cells; [2]): 88%
reduction in marginal zone B cell numbers (anti-insulin B cells; [2]): 65%
reduction in pre-marginal zone B cell numbers (anti-insulin B cells; [2]): 60%
development of Type 1 Diabetes [1]: does not develop Type 1 Diabetes
